Values of other authors as cited in patent US11925695B2, “Methods for making ultrasound contrast agents” (Lantheus Medical Imaging, Inc., priority 2016, dated 2024).
Like-named read-outs stand apart in the source and are kept apart here. Values belong to the molecule of their own block, whether it stands above or below them.

Columns and labels:
[1] = not given; remark: listed apart in the source

pKa for the amine of the ethanolamine: 9.3 | pKa for the hydroxyl of the phosphate: 1.9
Compound: CCCCCCCCCCCCCCCC(=O)OC[C@H](COP(=O)(O)OCCN)OC(=O)CCCCCCCCCCCCCCC [DPPE, 1,2-dipalmitoyl-sn-glycero-3-phosphatidylethanolamine]

viscosity ([1]; at 15° C.): 2200 cps
Compound: OCC(O)CO [Glycerol, glycerol]

viscosity ([1]; at 25° C.): 42 cps
Compound: CC(O)CO (centres unmarked) [Propylene glycol, propylene glycol]

Compound: O [Water]
viscosity ([1]; at 15° C.): approximately 1.14 cps
